The text below walks through data of ChEMBL document CHEMBL2311471, “Synthesis of (E)-8-(3-chlorostyryl)caffeine analogues leading to 9-deazaxanthine derivatives as dual A(2A) antagonists/MAO-B inhibitors” (J Med Chem, 2013).

In series [1] the target is Adenosine receptor A2a (Rattus norvegicus, UniProt P30543). Kind of series: Binding affinity to A2A receptor in rat brain striatal membrane by radioligand displacement assay. The format is cell membranes. In general terms: In a radioligand displacement assay an active substance lowers the binding of a labelled ligand.
Adenosine receptor A2a (Rattus norvegicus, UniProt P30543), sequence (P30543 whole entry): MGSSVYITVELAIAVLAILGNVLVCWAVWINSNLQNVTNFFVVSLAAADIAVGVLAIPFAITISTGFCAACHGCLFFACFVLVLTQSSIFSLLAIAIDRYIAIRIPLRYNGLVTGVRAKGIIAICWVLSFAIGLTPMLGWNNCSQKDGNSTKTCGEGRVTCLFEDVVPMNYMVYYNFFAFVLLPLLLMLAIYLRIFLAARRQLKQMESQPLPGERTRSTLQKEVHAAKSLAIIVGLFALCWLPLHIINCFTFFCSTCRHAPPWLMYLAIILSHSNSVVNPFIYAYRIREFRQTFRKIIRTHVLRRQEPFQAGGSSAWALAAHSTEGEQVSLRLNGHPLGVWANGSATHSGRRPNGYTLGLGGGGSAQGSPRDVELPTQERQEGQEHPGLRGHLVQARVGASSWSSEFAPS
The subject of series [2] is Mus musculus. Kind of series: General behavioral response in CD1 mouse assessed as induction of limbic stereotype at 30 to 100 mg/kg, po after 90 mins by Irwin test. The class given is organism-based, Limbic system. The arrangement: dose 30-100 mg/kg, route oral. To be noted: in vivo, 1.5 h.
For series [3], the target named is T1, Adenosine receptor A2a (Homo sapiens, UniProt P29274). Kind of series: Displacement of [3H]CGS 21680 from human recombinant adenosine A2A receptor expressed in HEK293 cells at 10 uM after 120 mins by scintillation counting analysis. The format is cell-based.
T1 sequence (P29274 whole entry): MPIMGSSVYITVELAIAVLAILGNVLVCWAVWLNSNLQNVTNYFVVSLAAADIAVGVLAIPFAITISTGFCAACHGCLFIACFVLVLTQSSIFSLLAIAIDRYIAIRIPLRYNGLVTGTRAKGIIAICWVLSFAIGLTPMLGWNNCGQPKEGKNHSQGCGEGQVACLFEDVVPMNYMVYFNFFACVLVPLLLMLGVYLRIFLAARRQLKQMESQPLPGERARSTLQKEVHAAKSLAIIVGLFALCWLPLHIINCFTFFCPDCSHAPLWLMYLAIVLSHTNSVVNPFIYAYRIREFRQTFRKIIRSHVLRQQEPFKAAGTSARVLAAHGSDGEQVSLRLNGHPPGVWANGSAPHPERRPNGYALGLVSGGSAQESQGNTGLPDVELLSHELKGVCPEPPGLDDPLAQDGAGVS
Series [4] deals with Mus musculus. As to the kind of experiment: Reversal of haloperidol-induced catalepsy in CD1 mouse at 30 to 100 mg/kg, po treated 2.5 hrs after haloperidol injection measured every 60 mins for 3 hrs. The class given is functional, organism-based.
The target of series [5] is T2, Amine oxidase [flavin-containing] A (Homo sapiens, UniProt P21397).
T2 sequence (P21397 whole entry): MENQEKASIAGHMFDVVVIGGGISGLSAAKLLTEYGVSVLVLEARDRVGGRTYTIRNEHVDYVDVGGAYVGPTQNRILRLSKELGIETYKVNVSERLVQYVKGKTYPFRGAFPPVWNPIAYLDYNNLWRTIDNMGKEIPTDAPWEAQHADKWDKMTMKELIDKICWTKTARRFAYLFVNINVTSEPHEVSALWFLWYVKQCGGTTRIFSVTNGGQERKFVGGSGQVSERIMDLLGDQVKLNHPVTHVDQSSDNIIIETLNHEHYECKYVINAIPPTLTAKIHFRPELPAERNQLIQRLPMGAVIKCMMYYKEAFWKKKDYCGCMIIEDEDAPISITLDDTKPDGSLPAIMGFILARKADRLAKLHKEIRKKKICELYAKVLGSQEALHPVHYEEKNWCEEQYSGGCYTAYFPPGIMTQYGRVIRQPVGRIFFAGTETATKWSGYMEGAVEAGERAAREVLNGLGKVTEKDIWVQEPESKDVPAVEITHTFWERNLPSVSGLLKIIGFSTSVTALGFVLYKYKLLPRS
Kind of series: Inhibition of human MAOA after 1 hr by luminescence assay.

The target in series [6] is 5-hydroxytryptamine receptor 2B (Homo sapiens) (UniProt P41595). Kind of series: Displacement of [125I](+/-)DOI from human recombinant 5HT2B receptor expressed in CHO cells at 10 uM after 60 mins by scintillation counting analysis. The class given is cell-based.
5-hydroxytryptamine receptor 2B (Homo sapiens), sequence (P41595 whole entry): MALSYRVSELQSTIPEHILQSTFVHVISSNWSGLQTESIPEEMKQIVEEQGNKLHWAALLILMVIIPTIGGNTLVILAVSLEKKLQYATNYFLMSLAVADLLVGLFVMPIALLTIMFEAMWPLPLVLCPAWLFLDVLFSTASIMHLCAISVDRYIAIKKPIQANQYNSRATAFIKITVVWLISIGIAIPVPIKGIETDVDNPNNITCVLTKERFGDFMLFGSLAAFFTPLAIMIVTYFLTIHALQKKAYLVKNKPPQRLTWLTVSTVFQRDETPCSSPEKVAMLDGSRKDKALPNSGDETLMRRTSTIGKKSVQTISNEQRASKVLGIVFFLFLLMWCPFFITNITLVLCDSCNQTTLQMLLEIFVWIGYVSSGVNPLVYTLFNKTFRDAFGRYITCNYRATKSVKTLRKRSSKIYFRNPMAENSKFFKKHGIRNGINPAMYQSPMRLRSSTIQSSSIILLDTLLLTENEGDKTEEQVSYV
For series [7], the system named is Mus musculus. Kind of series: Reversal of haloperidol-induced catalepsy in po dosed CD1 mouse treated 2.5 hrs after haloperidol injection measured every 60 mins for 3 hrs. The class given is functional, organism-based.
For series [8], the target named is T1, Adenosine receptor A2a. As to the kind of experiment: Displacement of [3H]ZM241385 from human adenosine A2A receptor expressed in HEK293 cells after 1 hr by microbeta scintillation counting analysis. The class given is cell-based.
In series [9] the target is Sodium-dependent noradrenaline transporter (Homo sapiens) (UniProt P23975). Kind of series: Displacement of [3H]nisoxetine from human recombinant norepinephrine transporter expressed in CHO cells at 10 uM after 120 mins by scintillation counting analysis. The format is cell-based.
Sodium-dependent noradrenaline transporter (Homo sapiens), sequence (P23975 whole entry): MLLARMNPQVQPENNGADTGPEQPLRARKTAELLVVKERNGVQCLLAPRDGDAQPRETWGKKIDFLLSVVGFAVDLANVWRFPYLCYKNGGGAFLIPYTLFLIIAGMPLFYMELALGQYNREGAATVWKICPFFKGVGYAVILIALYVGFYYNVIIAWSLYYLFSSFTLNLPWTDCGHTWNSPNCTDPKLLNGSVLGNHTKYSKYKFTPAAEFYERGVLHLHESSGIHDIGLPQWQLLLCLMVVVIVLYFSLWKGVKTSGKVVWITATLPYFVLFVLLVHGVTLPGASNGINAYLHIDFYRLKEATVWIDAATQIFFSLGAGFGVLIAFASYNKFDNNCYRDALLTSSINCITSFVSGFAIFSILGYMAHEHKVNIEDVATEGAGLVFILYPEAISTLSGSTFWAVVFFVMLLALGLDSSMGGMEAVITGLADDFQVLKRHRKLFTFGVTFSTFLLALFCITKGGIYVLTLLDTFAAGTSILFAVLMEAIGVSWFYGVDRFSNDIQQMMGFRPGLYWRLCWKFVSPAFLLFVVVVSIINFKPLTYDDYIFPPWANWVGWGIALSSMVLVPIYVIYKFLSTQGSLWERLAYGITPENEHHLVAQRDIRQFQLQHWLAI
The test system of series [10] is Mus musculus. Kind of series: General behavioral response in CD1 mouse assessed as induction of striatal stereotype at 30 to 100 mg/kg, po after 90 mins by Irwin test. The conditions noted are these: in vivo, 1.5 h. The format is organism-based. Further details: dose 30-100 mg/kg, route oral.
For series [11], the system named is Mus musculus. Kind of series: Reversal of haloperidol-induced catalepsy in CD1 mouse at 10 mg/kg, po treated 2.5 hrs after haloperidol injection measured every 60 mins for 3 hrs. The class given is functional, organism-based. Further details: dose 10 mg/kg.
Series [12] concerns the target T3, Amine oxidase [flavin-containing] B (Homo sapiens, UniProt P27338).
T3 sequence (P27338 whole entry): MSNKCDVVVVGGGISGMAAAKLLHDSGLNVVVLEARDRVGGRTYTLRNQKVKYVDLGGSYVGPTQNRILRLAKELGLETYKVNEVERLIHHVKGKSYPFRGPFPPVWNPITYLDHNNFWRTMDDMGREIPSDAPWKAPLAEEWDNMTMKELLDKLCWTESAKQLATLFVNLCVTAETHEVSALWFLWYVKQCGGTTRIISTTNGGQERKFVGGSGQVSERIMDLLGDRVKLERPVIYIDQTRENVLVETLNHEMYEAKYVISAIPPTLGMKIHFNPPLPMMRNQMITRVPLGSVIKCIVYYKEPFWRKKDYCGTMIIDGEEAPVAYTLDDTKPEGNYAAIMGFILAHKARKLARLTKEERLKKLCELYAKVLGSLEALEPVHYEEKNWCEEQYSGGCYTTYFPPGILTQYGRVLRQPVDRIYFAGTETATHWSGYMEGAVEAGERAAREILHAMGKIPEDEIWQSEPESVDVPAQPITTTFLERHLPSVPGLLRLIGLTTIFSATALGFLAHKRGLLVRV
Kind of series: Inhibition of human MAOB after 1 hr by luminescence assay.

Series [13] has as its target T4, Substance-K receptor (Homo sapiens) (UniProt P21452).
T4 sequence (whole entry): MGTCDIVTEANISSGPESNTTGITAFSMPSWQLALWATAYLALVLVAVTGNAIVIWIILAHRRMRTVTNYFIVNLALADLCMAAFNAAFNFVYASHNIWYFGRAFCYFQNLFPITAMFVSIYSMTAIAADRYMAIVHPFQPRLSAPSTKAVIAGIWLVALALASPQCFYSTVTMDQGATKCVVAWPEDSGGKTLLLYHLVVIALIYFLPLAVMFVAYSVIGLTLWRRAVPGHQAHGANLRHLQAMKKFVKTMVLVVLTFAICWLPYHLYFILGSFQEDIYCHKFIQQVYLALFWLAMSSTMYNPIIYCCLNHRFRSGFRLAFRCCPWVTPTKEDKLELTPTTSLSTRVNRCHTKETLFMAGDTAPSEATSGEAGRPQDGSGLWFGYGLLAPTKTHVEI
Kind of series: Displacement of [125I]NKA human recombinant NK2 receptor expressed in CHO cells at 10 uM after 60 mins by scintillation counting analysis. The class given is cell-based.

Series [14] addresses T5, Adenosine receptor A3 (Homo sapiens) (UniProt P0DMS8).
T5 sequence (whole entry): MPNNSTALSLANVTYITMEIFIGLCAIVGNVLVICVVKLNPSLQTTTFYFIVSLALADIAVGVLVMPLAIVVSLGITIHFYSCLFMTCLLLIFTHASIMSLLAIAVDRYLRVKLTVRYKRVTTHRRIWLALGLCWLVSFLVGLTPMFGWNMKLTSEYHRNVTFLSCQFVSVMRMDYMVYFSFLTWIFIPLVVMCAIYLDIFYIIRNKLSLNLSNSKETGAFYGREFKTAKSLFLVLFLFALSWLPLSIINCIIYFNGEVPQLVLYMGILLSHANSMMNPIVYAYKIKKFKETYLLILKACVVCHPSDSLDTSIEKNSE
As to the kind of experiment: Displacement of [125I]AB-MECA from human recombinant adenosine A3 receptor expressed in HEK293 cells at 10 uM after 120 mins by scintillation counting analysis. The class given is cell-based.

Series [15] concerns the target T6, Adenosine receptor A1 (Homo sapiens) (UniProt P30542).
T6 sequence (whole entry): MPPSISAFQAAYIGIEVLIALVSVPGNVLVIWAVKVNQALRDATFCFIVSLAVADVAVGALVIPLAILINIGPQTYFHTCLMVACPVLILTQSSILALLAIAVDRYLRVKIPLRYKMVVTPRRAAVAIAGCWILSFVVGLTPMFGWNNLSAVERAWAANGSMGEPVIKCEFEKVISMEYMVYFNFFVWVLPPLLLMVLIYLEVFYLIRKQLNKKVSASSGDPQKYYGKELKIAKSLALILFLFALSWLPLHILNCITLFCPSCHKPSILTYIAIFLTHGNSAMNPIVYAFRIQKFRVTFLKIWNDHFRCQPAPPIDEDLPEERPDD
As to the kind of experiment: Displacement of [3H]DPCPX from human recombinant adenosine A1 receptor expressed in CHO cells at 10 uM after 60 mins by scintillation counting analysis. The class given is cell-based.

For series [16], the system named is Mus musculus. As to the kind of experiment: General behavioral response in CD1 mouse assessed as induction of limbic stereotype at 10 mg/kg, po after 90 mins by Irwin test. The class given is organism-based, Limbic system. The arrangement: dose 10 mg/kg, route oral. The conditions noted are these: in vivo, 1.5 h.
Series [17] relates to Mus musculus. Kind of series: General behavioral response in CD1 mouse assessed as increase in licking behavior at 100 mg/kg, po after 240 mins by Irwin test. The arrangement: dose 100 mg/kg, route oral. The format is ADME, organism-based. To be noted: in vivo, 4 h.
The subject of series [18] is Mus musculus. As to the kind of experiment: General behavioral response in CD1 mouse assessed as induction of striatal stereotype at 10 mg/kg, po after 90 mins by Irwin test. Further details: dose 10 mg/kg, route oral. The class given is organism-based. To be noted: in vivo, 1.5 h.

Activity calls are given as the source filed them. No cut-off for these calls is given here.

`C#CCn1c(=O)c2c(nc(C#Cc3ccccc3)n2C)n(C)c1=O`: affinity on Adenosine receptor A2a [1] was put at a Ki of 300 nM.

In the case of `Cn1c(=O)c2c(cc(/C=C/c3ccc(Cl)cc3)n2C)n(C)c1=O`, the Activity entry in the series with Mus musculus [2] was “Toxic”; in the series on Mus musculus [7], “Dose-dependent effect”; in the series with Mus musculus [10], “Toxic”; in the series with Mus musculus [16], “Non-toxic”; with Mus musculus [17] it was “Toxic”; in the series with Mus musculus [18] it was “Non-toxic”. Further, the inhibition on Adenosine receptor A2a [3] is 91%; in [6] it was 72%; in [9] it was 57%; in series [13], 75%; in series [14] it was 60%; in series [15] it was 59%. Besides, the result with Mus musculus [4] was Active. The values for the IC50 in [5] and in series [12] were 10000 nM and 200 nM, respectively. This compound also yielded a Ki at Adenosine receptor A2a [8] of 260 nM. In addition, the outcome in the series on Mus musculus [11] was inactive.

For orientation: Ki means a dissociation constant, usually derived from enzyme kinetics or from competition with a known ligand. A low value points to a stronger hold on the target. The term inhibition denotes the change of the read-out against control, counted positive when it falls. For orientation: IC50 means the concentration needed to halve the response being measured. Lower therefore signals higher potency.
